{"source": "BindingDB's records for PubMed 40258217", "about": "(The Hebrew University of Jerusalem)", "target": "Cannabinoid receptor 1 (Mus musculus, UniProt P47746)", "sequence (P47746 whole entry)": "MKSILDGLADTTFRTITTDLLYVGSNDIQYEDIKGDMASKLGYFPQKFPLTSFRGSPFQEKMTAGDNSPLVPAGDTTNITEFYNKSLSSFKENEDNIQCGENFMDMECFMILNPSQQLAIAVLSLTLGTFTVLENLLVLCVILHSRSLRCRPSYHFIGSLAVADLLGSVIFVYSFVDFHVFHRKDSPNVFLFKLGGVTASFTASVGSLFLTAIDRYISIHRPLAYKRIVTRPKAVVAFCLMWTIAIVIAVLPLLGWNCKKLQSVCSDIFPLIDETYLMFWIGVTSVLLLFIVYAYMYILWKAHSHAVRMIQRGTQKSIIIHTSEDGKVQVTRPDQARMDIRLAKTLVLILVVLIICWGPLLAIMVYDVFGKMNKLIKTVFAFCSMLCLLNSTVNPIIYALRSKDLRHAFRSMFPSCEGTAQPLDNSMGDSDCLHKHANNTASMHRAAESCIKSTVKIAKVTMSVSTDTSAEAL", "assay": "Displacement of [3H]CP-55940 from CB1R in C57Bl/6Jhsd mouse cortex membrane incubated for 1 hr by liquid scintillation counter analysis"}
{"smiles": "CCOC(=O)N1CCC(N[C@H]2CCCOc3c2nn(-c2ccccc2Cl)c3-c2ccc(Cl)cc2)CC1", "values": [{"measurement": "Ki", "value": 8.9, "unit": "nM"}]}
